Test results: US5541179A, “Tropon-2-one piperazine carboxamides as serotonergic agents” (American Home Products Corporation, priority 1995, dated 1996)

Key:
[1] = target: T1, 5-HT1A serotonin receptor (Rattus norvegicus, UniProt P19327); test: 5-HT1A receptor binding, displacement of [^3 H]8-OHDPAT (procedure of Hall et al., J. Neurochem. 44, 1685 (1985))
T1 construct: from tissue
T1 sequence (P19327 1-422): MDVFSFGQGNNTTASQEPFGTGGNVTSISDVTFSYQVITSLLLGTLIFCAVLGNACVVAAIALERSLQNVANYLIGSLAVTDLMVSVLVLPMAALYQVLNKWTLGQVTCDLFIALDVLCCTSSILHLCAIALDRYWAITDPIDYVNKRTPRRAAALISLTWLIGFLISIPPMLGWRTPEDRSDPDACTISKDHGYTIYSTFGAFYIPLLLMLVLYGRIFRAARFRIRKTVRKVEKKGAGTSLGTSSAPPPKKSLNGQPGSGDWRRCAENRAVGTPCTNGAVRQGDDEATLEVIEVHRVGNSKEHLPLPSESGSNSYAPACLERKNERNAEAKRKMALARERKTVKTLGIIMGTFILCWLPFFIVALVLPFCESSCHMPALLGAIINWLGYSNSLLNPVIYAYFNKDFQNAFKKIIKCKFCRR
From the text: High affinity for the serotonin 5-HT1A receptor was established by testing the claimed compound's ability to displace [^3 H]8-OHDPAT (dipropylaminotetralin) from the 5-HT1A serotonin receptor following the procedure of Hall et al., J. Neurochem.

[2] = target: T1, 5-HT1A serotonin receptor; details: qualitative statement on reference standard; cited from earlier work

Row | SMILES | IC50 [1] [nM] | affinity for the 5-HT1A serotonin receptor subtype of the standard (in words) [2]
1 | C[C@H](CN1CCN(c2cccccc2=O)CC1)N(C(=O)C1CCCCC1)c1ccccn1 [Example 4, Cyclohexanecarboxylic acid (R)-{1-methyl-2-[4-(7-oxo-cyclohepta-1,3,5-trienyl)-piperazin-1-yl]-ethyl}-(pyrilin-2-yl)-amide] | 351 | 
2 | C[C@H](CN1CCN(c2cccccc2=O)CC1)N(C(=O)C1CC=CCC1)c1ccccn1 (stereo partly drawn) [Example 3, Cyclohex-3-enecarboxylic acid (R)-{1-methyl-2-[4-(7-oxo-cyclohepta-1,3,5-trienyl)-piperazin-1-yl]-ethyl}-(pyridin-2-yl)-amide] | 861 | 
3 | O=C1CC2(CCCC2)CC(=O)N1CCCCN1CCN(c2ncccn2)CC1 [Buspirone] |  | potent affinity

The remaining compounds from weak to strong by IC50 [1], led by results:

Row | IC50 [1] [nM] | SMILES | affinity for the 5-HT1A serotonin receptor subtype of the standard (in words) [2]
4 | 19.8 | C[C@H](CN1CCN(c2cccccc2=O)CC1)Nc1ccccn1 [Example 2, (R)-2-{4-[2-(Pyridin-2-ylamino)-propyyl}-piperazin-1-yl}-cyclohepta-2,4,6trienone] | 
5 | 18.6 | O=C(C(CCN1CCN(c2cccccc2=O)CC1)c1ccccc1)N1CCCCCC1 (centres unmarked) [Example 1, 2-[4-(4-Azepan-1-yl-4-oxo-3-phenyl-butyl)-piperazin-1-yl]-cyclohepta-2,4,6-trienone] | 
